Experimental data as given in patent publication US7659053B2, “Methods of alteration of surface affinities using non-chemical force-creating fields” (President and Fellows of Harvard College, priority 2003, dated 2010).

Each compound was assayed on NIH 3T3 fibroblast cells (assay: Culture of NIH 3T3 fibroblasts on micropatterned SAMs on gold and palladium). Conditions: NIH 3T3 cells.
Assay type: cell-based
Description: To test the ability of SAMs on palladium to support the adhesion and growth of cells in micropatterns, certain features on the substrates were defined using microcontact printing, using techniques similar to those described above. A poly(dimethylsiloxane) (PDMS) stamp that carried microfeatures was inked with 2 mM octadecanethiol (C18) in ethanol, dried under a stream of nitrogen, then brought it into contact with the palladium films for 2 to 10 seconds. Next, the palladium film was immersed in ethanolic solutions containing 2 mM of thiols A, B, or C for up to 50 hours.
NIH 3T3 fibroblast cells were then cultured on these micropatterned substrates. […] In contrast, OEG-terminated SAMs on the same substrate prevented the adhesion of cells during the same times.

| Structure (SMILES) | adhesion of cells on SAM region |
| --- | --- |
| OCCOCCOCCOCCOCCOCCOCCCCCCCCCCCS [thiol B, HS(CH2)11(OCH2CH2)6OH] | prevented the attachment of cells |
| CCCCCCCCCCCCCCCCCCS [Compound C18, HS—(CH2)17—CH3] | supported the adhesion of cells |
| OCCOCCOCCOCCOCCOCCOCCOCCCS [Compound 2, HS(CH2)3(OCH2CH2)7OH] | prevented the attachment of cells |
| OCCOCCOCCOCCCCCCCCCCCS [Compound C11EG3, HS—(CH2)11—(O—CH2—CH2)3—OH] | prevented the attachment of cells |

The compounds below were run on BCE cells (assay: Cell motility screening assay: migration of patterned BCE cells out of patterns after voltage pulse). Conditions: drug added before voltage pulse (−1.2 V, 30 s), fumagillin 100 mM, cycloheximide 1 mg/mL, nocodozole 1 mg/mL.
Assay type: cell-based, Bovine
Description: Time-lapse images were acquired on a Leica inverted microscope equipped with a commercially available on-stage incubation chamber that maintained the temperature at 37° C. and the CO2 concentration at 10% at all times. To prevent the evaporation of water, the culture dish was covered with a thin layer of mineral oil (Sigma-Aldrich, St. Louis, Mo.). Phase-contrast images were acquired by a Hamamatsu video camera using METAMORPH® software (Universal Imaging Inc., Downingtown, Pa.). Fluorescent images were acquired through a charge-coupled device from Hamamatsu (ORCA-ER). Quantification of cell shapes for the analysis of the fractional coverage of the surface was performed with an image analysis routine in Metamorph. Briefly, the cells were outlined and the total areas that the cells occupied were calculated. The calculated area was then divided by the total area of the field of view in the micrograph to obtain the normalized fractional coverage by cells. The LIVE/DEAD® assay kit was obtained from Molecular Probes (Eugene, Oreg.).
BCE cells were patterned on a gold-coated substrate coated with C18 and C11EG3 thiols in discrete patterned regions, similar to those shown in FIG. 1 by techniques similar to those described above in Example 1. Additionally, serum-containing media was used in some instances. […]

| Structure (SMILES) | effect on cell migration out of the patterns |
| --- | --- |
| CO[C@@H]1[C@H](OC(=O)/C=C/C=C/C=C/C=C/C(=O)O)CC[C@]2(CO2)[C@H]1[C@@]1(C)O[C@@H]1CC=C(C)C [Fumagillin, fumagillin] | reduce the rates of cell migration |
| C[C@@H]1C[C@@H]([C@H](O)CC2CC(=O)NC(=O)C2)C(=O)[C@@H](C)C1 [cycloheximide] | reduce the rates of cell migration |
